The results in this text go back to the pKa sets of Baltruschat and Czodrowski (2020).

For the first series the following is noted: acidic group.
Compound `Oc1ccc2nc3ccccc3nc2c1` registered a pKa of 7.45. The compound `Oc1cccn[nH+]1` had a pKa of -1.8. Same read-out and setting: then `O=C(O)C[NH+](CCNS(=O)(=O)c1ccc(CCBr)cc1)CC(=O)O`, with 2.15; and `Cc1ccccc1C(=S)Nc1ccccc1`, with 10.9; and `O=C([O-])c1ccc(O)cc1`, with 9.35. The same measure, in the same setting: then `N/C(=N\O)c1ncnc2nc[nH]c12`, with 9.4; and `O=[N+]([O-])c1ccc(O)c(C[NH+]2CCOCCOCCOCCOCCOCC2)c1`, with 5.77; and `O=[N+]([O-])c1ccccc1-c1nnn[nH]1`, with 2.98. Turning to `O=C([O-])CCC(=O)NOCc1ccccc1`, the pKa turned out to be 10.2.

With `NS(=O)(=O)c1cccc(C(F)(F)F)c1`, the pKa worked out at 8.98.

As to `O=C(O)C(c1ccc(-c2ccccc2)cc1)C(O)Cc1ccccc1` (stereo not given), the pKa was found to be 4.29.

As to `CCCCCCCCCCCCCCCCCC(=O)O`, the pKa came to 5.01.

On to `[NH3+]CCS`, for which the pKa was determined as 8.4. For the compound `O=C(C[n+]1cccc2c3ccccc3ccc21)c1ccc([N+](=O)[O-])cc1`, the pKa was found to be 9.45. Still for that read-out and setting: then `CC(=O)/C(C[NH+]1CCCCC1)=N\O`, with 7.05; and `O=c1cc(CO)occ1O`, with 7.82. On the same count and under the same terms, next, `N#CC(C#N)=NNc1cccc(Cl)c1`: 6; `Oc1c(C(Nc2nc3ccccc3s2)c2ccccn2)ccc2cccnc12` (stereo not given): 10.9. On the same count and under the same terms, then `CC(C)(/C=C/C(=O)[O-])c1cc(Br)ccc1O`, with 10. Take `OC(O)c1ccccc1`: the pKa stood at 12.4. The same measure, in the same setting: next, `Cc1c(C)c(O)c(C)c(C)c1O`: 11.3; `CC/C=C/CC1=[NH+]C(C(=O)O)[C@@H]2SC(C)(C)C(C(=O)O)N12` (stereo not given in full): 2.4; `O=C(O)CCc1ccco1`: 4.36. On the same count and under the same terms, next, `CC[NH+](CC)Cc1cc([N+](=O)[O-])c2ccccc2c1O`: 2.82.

With `Brc1ccc2c(c1)C([P+](c1ccccc1)(c1ccccc1)c1ccccc1)c1ccccc1-2` (stereo not given), the pKa stood at 7.33.

With `CCNC(=S)OC(C)C`, the pKa amounted to 11.5. Same read-out and setting: then `CCC/C=C/C(=O)O`, with 4.71; and `Cc1cccnc1/C=N/O`, with 10.5; and `C[n+]1cccc(C(=O)O)c1`, with 2.29. Regarding `CC1NCCc2c1[nH]c1ccc([N+](=O)[O-])cc21` (stereo not given), the pKa was 14.1. Still for that read-out and setting: next, `c1cc2[nH]cnc2cn1`: 10.9; `O=C1CCc2ccc(Cl)cc2C1`: 12.3. Still for that read-out and setting: next, `OCCS`: 9.47.

`NS(=O)(=O)C(F)(F)Cl` had a pKa of 6.5. `O=C(O)CCc1ccccc1` registered a pKa of 4.59. On the same count and under the same terms, then `[NH3+]c1ccc(CC(=O)O)cc1`, with 3.49. The compound `Cc1cn([C@@H]2C[C@@H](O)[C@H](CO)O2)c(=O)[nH]c1=S` yielded a pKa of 8.8. Still for that read-out and setting: next, `O=[N+]([O-])c1ccc[nH]1`: 10.6.

On to `O=C(O)/C=C\C(=O)NOCc1ccccc1`, for which the pKa came out at 3.8. Still for that read-out and setting: next, `CC1(C)S[C@H]2[C@@H](NC(=O)Cc3ccccc3)C(=O)N2[C@@H]1C(=O)O`: 2.76.

Staying with this series, now noted: basic group.
In the case of `Cc1ccc(-c2cnc(-c3ccccc3)o2)cc1`, the pKa came to 0.91.

Take `CC(C)(C)CC(=O)n1cnc(Br)c1`: the pKa amounted to 4.

With `CCN1CCCCC1`, the pKa amounted to 10.7. Turning to `Oc1ccc2nc3ccccc3nc2c1`, the pKa is 2.6.

Regarding `CN(C)CCc1ccc(O)cc1`, the pKa turned out to be 9.8. Still for that read-out and setting: then `O=C1C[C@@H]2OCC=C3CN4CC[C@@]56c7ccccc7N1[C@H]5C2[C@@]3(S(=O)(=O)[O-])C[C@H]46` (stereo not given in full), with 7.53; and `CCC(C)N(C)c1ccccc1` (stereo not given), with 6.03; and `CCOc1ccc2nccc([C@@H](O)[C@@H]3C[C@H]4CC[NH+]3C[C@@H]4CC)c2c1`, with 4.05. Still for that read-out and setting: then `O=C(CCl)CCl`, with 11. The same measure, in the same setting: next, `CN1CC[C@]23c4c5ccc(O)c4O[C@H]2[C@@H](O)CC[C@H]3[C@H]1C5`: 8.94; `O=C([O-])C[NH+](CC(=O)[O-])Cc1nc2ccccc2[nH]1`: 3.95. In the case of `C(COCCc1nnn[nH]1)OCCc1nnn[nH]1`, the pKa worked out at 4.79. Consider `N=C(N)Nc1nc(N)nc(NC(=N)N)n1`, for which the pKa was found to be 9.8. Same read-out and setting: next, `CNCCCN`: 10.7; `N#CC(CCN1CCCCC1)(c1ccccc1)c1ccccc1`: 8.07; `N#CC(C#N)=NNc1cccc(Cl)c1`: -0.78. The compound `Nc1cccc2cn[nH]c12` gave a pKa of 3.05. On the same count and under the same terms, next, `CC(C)N/C=N/c1ccc(-c2c[nH]cn2)cc1`: 8.88; `COC(=O)N1c2ccccc2[C@@]23CCN4CC=C[C@]5(CC[C@]12[C@](O)(C(=O)OC)C5O)[C@H]43` (stereo not given in full): 5.63. Take `Cc1c(Cn2ccnc2)sc2ccc(C(=O)[O-])cc12`: the pKa was found to be 6.58.

In the case of `COc1ccccc1/N=C/N(C)C`, the pKa came out at 8.11. On the same count and under the same terms, next, `OCCn1cnc2ccccc21`: 5.29; `CN(C)c1ccc2c(c1)Sc1cc([NH+](C)C)ccc1N2`: 5.27. Same read-out and setting: then `N[C@H]1C[C@H]2CCCC[C@@H]2C[C@@H]1N`, with 10.1; and `O=P([O-])([O-])C(NCc1ccccn1)c1ccccc1[O-]` (stereo not given), with 12.1.

Compound `C[C@@H](Cc1ccccc1)N(C)C` came in with a pKa of 9.4.

For the compound `NCC[n+]1ccc2ccccc2c1`, the pKa was determined as 6.85. Same read-out and setting: next, `COc1ccc2c3c1O[C@H]1[C@@H](O)CC[C@H]4[C@@H](C2)N(C)CC[C@@]341`: 8.71; `NCC(=O)NCC(=O)[O-]`: 8.31; `CCN(CCO)CC(C)O` (stereo not given): 8.9. In turn, `Cc1nc(-c2ccccc2)[nH]c1C` came in with a pKa of 7.

In turn, `CCOCCn1c(CN2CCN(CCCCn3cccn3)CC2)nc2ccccc21` returned a pKa of 7.9. `N[C@H]1CCCC[C@@H]1N` returned a pKa of 9.75. Regarding `CN1CCN(C(c2ccccc2)c2ccc(Cl)cc2)CC1` (stereo not given), the pKa worked out at 7.81.

Compound `Brc1ccccn1` registered a pKa of 0.9. `Cc1ncc2nc(C)c(C)nc2n1` gave a pKa of 3.76.

Compound `N=C(N)Nc1ccccc1` displayed a pKa of 10.8. On the same count and under the same terms, next, `CCCCNc1ccccc1`: 5.11. The same measure, in the same setting: next, `Nc1nc(N)c2ccccc2n1`: 8.12. The same measure, in the same setting: next, `Cc1ccccc1NC(C)(C)C`: 6.49; `Cc1ccc(N)c(C)c1`: 4.75; `CC(O)CN(CC(C)O)C(C)(C)C` (stereo not given): 9.36.

Take `c1ccc2ncncc2c1`: the pKa was determined as 3.51. On the same count and under the same terms, then `Cc1ccccc1/N=C/N(C)C`, with 8.27; and `CCN(CC)CCOC(=O)c1ccccc1`, with 8.9.

Compound `C[C@H](CCCNCc1ccccc1)[C@H]1CC[C@H]2[C@@H]3[C@H](O)C[C@@H]4C[C@H](O)CC[C@]4(C)[C@H]3CC[C@]12C` had a pKa of 9.07. On the same count and under the same terms, then `c1cc2[nH]cnc2cn1`, with 6.1. Same read-out and setting: next, `CN(C)C(C)(C)C=O`: 8.4; `CC1CCNC(C)(C)C1` (stereo not given): 11.1; `C1=CN2CCC1CC2`: 9.82.

The compound `NCc1ccccc1` came in with a pKa of 9.36. The same measure, in the same setting: next, `CCOc1ccc2nccc([C@@H](O)[C@@H]3C[C@H]4CCN3C[C@@H]4CC)c2c1`: 8.5; `Nc1ccc(Cl)cc1`: 3.96. Same read-out and setting: then `CC(=O)OC(C)CN(C)C` (stereo not given), with 8.31. On the same count and under the same terms, next, `CCSC(=O)c1cccc(Br)c1`: -5.53.

The pKa is the negative logarithm of the acid dissociation constant. A high value points to a group that holds its proton tightly.
